Experimental data reported in US11981658B2, “Substituted aminopyridine compounds as EGFR inhibitors” (YUHAN CORPORATION, priority 2021, dated 2024).
Like-named read-outs stand apart in the source and are kept apart here.

Legend:
EGFR Del19/T790M/C797S = EGFR Del19/T790M/C797S (Homo sapiens, UniProt P00533, C797S/DEL746-750/T790M); assay: Biochemical EGFR kinase inhibition assay (Lance Ultra TR-FRET), triple mutant del19/T790M/C797S
In short: (§1)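 Kinase activity is measured by TR-FRET phosphopeptide detection. Compounds span 0.003 μM to 10 μM; the 1 h reaction at room temperature is quenched with EDTA, then labelled antibody (2 nM) is incubated 60 min before reading.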

EGFR L858R/T790M/C797S = EGFR L858R/T790M/C797S (Homo sapiens, UniProt P00533, C797S/L858R/T790M); assay: Biochemical EGFR kinase inhibition assay (Lance Ultra TR-FRET), triple mutant L858R/T790M/C797S
In short: as §1

EGFR Del19/C797S = EGFR Del19/C797S (Homo sapiens, UniProt P00533, C797S/DEL746-750); assay: Biochemical EGFR kinase inhibition assay (Lance Ultra TR-FRET), double mutant del19/C797S
In short: as §1

EGFR L858R/C797S = EGFR L858R/C797S (Homo sapiens, UniProt P00533, C797S/L858R); assay: Biochemical EGFR kinase inhibition assay (Lance Ultra TR-FRET), double mutant L858R/C797S
In short: as §1

EGFR wildtype (WT) = EGFR wildtype (WT) (Homo sapiens, UniProt P00533); assay: Biochemical EGFR kinase inhibition assay (Lance Ultra TR-FRET), wildtype
In short: as §1

[1] = ATP at Km, read-out: IC50 Del19/T790M/C797S (nM), Km ATP
[2] = IC50 Del19/T790M/C797S (nM), 100 μM ATP
[3] = ATP at Km, read-out: IC50 L858R/T790M/C797S (nM), Km ATP
[4] = IC50 L858R/T790M/C797S (nM), 100 μM ATP
[5] = ATP at Km, read-out: IC50 Del19/C797S (nM), Km ATP
[6] = IC50 Del19/C797S (nM), 100 μM ATP
[7] = ATP at Km, read-out: IC50 L858R/C797S (nM), Km ATP
[8] = IC50 L858R/C797S (nM), 100 μM ATP
[9] = ATP at Km, read-out: IC50 WT (nM), Km ATP

Sequence of EGFR wildtype (WT) (P00533 25-1210): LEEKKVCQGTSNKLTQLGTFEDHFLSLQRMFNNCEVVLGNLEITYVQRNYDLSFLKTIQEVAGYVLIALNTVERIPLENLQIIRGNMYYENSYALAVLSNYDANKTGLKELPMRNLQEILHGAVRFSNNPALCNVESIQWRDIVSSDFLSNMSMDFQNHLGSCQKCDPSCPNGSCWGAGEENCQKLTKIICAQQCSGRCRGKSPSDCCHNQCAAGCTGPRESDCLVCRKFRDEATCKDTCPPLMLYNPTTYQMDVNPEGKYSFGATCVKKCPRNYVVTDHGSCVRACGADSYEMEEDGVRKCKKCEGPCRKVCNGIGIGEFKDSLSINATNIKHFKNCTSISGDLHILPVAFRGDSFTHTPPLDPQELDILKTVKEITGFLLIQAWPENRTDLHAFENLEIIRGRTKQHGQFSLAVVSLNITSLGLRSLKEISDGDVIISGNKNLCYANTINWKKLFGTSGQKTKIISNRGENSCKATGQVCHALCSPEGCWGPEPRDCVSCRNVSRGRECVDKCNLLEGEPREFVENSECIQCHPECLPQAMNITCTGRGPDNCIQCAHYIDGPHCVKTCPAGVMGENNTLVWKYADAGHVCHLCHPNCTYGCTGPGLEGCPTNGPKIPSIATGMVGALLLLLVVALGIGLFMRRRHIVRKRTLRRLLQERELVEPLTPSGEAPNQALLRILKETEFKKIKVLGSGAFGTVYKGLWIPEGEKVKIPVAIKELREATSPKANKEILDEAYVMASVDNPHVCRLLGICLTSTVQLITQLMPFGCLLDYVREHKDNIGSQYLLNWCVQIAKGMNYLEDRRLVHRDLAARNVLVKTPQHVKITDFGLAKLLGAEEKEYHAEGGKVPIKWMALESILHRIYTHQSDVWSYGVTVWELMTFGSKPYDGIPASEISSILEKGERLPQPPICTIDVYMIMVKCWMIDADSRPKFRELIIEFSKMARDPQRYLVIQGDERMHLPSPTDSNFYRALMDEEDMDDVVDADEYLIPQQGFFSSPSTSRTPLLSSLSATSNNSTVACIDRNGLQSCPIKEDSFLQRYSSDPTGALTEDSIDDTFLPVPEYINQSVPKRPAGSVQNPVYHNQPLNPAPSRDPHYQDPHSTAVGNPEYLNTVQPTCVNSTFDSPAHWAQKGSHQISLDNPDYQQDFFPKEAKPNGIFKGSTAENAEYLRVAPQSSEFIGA
Sequence of EGFR Del19/T790M/C797S (P00533 with tags, fused parts or gaps DEL746-750/T790M/C797S): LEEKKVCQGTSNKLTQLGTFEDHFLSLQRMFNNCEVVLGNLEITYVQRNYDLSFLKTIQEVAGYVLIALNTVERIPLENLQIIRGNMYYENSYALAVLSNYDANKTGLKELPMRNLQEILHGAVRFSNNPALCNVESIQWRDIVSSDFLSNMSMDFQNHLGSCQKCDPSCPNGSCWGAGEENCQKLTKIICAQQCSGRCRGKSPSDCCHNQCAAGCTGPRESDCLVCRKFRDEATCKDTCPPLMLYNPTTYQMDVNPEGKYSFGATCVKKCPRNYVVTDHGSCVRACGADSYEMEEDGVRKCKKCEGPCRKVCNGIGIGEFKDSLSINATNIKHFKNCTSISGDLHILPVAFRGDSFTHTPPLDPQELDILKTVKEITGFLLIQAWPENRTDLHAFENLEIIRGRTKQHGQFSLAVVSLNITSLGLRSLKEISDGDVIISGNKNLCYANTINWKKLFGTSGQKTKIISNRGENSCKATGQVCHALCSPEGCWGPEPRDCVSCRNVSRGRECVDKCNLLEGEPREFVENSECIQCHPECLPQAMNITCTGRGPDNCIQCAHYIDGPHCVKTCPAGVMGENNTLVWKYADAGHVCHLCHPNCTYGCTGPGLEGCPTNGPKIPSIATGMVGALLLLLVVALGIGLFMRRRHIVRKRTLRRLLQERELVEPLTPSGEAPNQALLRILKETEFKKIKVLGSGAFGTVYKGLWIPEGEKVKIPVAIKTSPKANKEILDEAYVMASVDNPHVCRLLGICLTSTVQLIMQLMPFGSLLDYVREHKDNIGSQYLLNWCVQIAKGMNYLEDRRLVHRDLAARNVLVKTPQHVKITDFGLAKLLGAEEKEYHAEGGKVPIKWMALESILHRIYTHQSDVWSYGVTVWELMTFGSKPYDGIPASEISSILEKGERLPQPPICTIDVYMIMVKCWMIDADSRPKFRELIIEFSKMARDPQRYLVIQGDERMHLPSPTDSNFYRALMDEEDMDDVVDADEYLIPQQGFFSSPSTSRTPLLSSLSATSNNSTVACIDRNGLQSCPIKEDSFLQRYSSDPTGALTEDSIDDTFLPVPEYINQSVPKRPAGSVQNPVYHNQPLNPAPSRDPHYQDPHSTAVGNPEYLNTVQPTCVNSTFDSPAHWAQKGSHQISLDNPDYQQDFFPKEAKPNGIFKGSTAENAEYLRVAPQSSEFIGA
Sequence of EGFR L858R/C797S (P00533 25-1210 C797S/L858R): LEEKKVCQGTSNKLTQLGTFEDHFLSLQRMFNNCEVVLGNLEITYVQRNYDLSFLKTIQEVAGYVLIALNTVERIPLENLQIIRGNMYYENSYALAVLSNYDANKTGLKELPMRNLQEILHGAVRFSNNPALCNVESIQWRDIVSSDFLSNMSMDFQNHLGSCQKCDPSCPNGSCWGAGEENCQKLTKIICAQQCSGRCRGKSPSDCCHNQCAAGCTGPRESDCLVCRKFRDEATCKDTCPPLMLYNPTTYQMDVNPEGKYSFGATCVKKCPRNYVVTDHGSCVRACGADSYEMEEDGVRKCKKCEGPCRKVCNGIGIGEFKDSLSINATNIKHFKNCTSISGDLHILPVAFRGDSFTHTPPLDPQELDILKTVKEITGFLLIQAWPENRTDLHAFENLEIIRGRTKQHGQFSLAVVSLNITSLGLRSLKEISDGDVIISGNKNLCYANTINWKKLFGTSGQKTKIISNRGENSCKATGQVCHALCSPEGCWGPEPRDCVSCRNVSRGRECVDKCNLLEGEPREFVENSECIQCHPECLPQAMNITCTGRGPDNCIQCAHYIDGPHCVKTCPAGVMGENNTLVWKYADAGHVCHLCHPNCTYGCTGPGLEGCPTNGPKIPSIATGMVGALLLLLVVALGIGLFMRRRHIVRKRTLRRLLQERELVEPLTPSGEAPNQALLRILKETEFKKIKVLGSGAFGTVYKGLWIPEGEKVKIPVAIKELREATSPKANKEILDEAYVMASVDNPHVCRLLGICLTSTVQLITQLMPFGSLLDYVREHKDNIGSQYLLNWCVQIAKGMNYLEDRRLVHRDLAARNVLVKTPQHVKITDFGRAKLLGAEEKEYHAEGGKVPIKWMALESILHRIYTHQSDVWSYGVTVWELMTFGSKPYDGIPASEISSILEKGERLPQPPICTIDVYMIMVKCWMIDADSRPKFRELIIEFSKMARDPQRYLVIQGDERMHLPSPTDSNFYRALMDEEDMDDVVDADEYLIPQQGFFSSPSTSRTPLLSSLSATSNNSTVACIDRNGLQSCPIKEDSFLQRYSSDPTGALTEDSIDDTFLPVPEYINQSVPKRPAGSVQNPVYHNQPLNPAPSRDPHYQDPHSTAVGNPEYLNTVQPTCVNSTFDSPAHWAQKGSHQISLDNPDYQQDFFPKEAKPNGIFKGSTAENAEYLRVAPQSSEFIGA
Sequence of EGFR Del19/C797S (P00533 with tags, fused parts or gaps DEL746-750/C797S): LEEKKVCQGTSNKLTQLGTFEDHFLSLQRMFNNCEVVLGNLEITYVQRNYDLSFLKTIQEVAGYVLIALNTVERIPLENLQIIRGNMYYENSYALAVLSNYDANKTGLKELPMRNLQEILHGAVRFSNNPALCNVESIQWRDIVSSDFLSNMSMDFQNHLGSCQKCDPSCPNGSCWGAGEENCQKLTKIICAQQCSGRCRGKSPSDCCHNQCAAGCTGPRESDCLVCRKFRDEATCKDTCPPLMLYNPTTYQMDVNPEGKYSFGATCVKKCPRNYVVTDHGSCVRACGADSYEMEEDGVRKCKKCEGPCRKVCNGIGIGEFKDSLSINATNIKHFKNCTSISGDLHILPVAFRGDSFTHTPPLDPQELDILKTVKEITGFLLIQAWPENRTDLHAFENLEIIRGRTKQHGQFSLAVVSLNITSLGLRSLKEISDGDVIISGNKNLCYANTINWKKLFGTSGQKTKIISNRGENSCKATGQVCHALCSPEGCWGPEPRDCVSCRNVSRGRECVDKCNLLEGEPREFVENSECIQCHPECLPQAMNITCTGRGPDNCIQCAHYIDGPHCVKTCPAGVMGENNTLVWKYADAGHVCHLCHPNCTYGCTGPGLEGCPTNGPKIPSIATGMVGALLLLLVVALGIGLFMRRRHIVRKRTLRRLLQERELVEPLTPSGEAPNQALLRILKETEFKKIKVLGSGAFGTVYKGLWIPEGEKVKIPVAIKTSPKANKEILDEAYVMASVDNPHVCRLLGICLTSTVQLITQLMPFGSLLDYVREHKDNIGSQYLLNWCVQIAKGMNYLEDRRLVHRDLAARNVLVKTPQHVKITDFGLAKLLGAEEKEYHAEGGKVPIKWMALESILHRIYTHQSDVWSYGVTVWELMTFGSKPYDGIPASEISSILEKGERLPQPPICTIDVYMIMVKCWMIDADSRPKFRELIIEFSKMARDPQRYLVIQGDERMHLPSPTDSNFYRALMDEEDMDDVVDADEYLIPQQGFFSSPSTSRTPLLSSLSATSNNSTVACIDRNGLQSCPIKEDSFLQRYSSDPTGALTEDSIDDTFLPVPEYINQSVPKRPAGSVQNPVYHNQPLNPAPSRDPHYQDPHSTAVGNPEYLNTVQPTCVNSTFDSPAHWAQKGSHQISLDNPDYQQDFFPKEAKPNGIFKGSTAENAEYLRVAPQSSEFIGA

SMILES	IC50 (EGFR Del19/T790M/C797S; [1]) [nM]	IC50 (EGFR Del19/T790M/C797S; [2]) [nM]	IC50 (EGFR L858R/T790M/C797S; [3]) [nM]	IC50 (EGFR L858R/T790M/C797S; [4]) [nM]	IC50 (EGFR Del19/C797S; [5]) [nM]	IC50 (EGFR Del19/C797S; [6]) [nM]	IC50 (EGFR L858R/C797S; [7]) [nM]	IC50 (EGFR L858R/C797S; [8]) [nM]	IC50 (EGFR wildtype (WT); [9]) [nM]	IC50 (EGFR wildtype (WT); IC50 WT (nM), 100 μM ATP) [nM]
CC1(CO)CCN(c2cc(Nc3ccnc(-c4cnn(S(=O)(=O)C5CC5)c4)n3)ncc2C#CC2CC2)CC1 [Example 250, (1-(5-(Cyclopropylethynyl)-2-((2-(1-(cyclopropylsulfonyl)-1H-pyrazol-4-yl)pyrimidin-4-yl)amino)pyridin-4-yl)-4-methylpiperidin-4-yl)methanol]	0.7	0.7	0.4	0.9	2	2.8	6.6	74.7	15	> 10000
CC1(CO)CCN(c2cc(Nc3ccnc(-c4cnn(S(=O)(=O)C5CC5)c4)n3)ncc2C#CC2CCCC2)CC1 [Example 251, (1-(5-(Cyclopentylethynyl)-2-((2-(1-(cyclopropylsulfonyl)-1H-pyrazol-4-yl)pyrimidin-4-yl)amino)pyridin-4-yl)-4-methylpiperidin-4-yl)methanol]	3	3.3	1.4	5.3	8.7	15.9	41.5	397	72.6	> 10000
CC1(CO)CCN(c2cc(Nc3ccnc(-c4cnn(S(=O)(=O)C5CC5)c4)n3)ncc2C#CC2CCCCC2)CC1 [Example 252, (1-(5-(Cyclohexylethynyl)-2-((2-(1-(cyclopropylsulfonyl)-1H-pyrazol-4-yl)pyrimidin-4-yl)amino)pyridin-4-yl)-4-methylpiperidin-4-yl)methanol]	8.5	7.9	4.3	15.9	35.9	39.9	100	2080	235	> 10000
CC1(CO)CCN(c2cc(Nc3ccnc(-c4cnn(S(=O)(=O)C5CC5)c4)n3)ncc2C#Cc2ccc(CN3CCOCC3)cc2)CC1 [Example 253, (1-(2-((2-(1-(Cyclopropylsulfonyl)-1H-pyrazol-4-yl)pyrimidin-4-yl)amino)-5-((4-(morpholinomethyl)phenyl)ethynyl)pyridin-4-yl)-4-methylpiperidin-4-yl)methanol]	5.3	3.3	3.1	4.4	4.2	7.1	9.8	81.2	23.9	> 10000
CN(C)Cc1ccc(C#Cc2cnc(Nc3ccnc(-c4cnn(S(=O)(=O)C5CC5)c4)n3)cc2N2CCC(C)(CO)CC2)cc1 [Example 254, (1-(2-((2-(1-(Cyclopropylsulfonyl)-1H-pyrazol-4-yl)pyrimidin-4-yl)amino)-5-((4-((dimethylamino)methyl)phenyl)ethynyl)pyridin-4-yl)-4-methylpiperidin-4-yl)methanol]	0.1	0.2	0.1	0.2	0.3	0.4	2.1	1.3	0.9	248
CN(C)Cc1cccc(C#Cc2cnc(Nc3ccnc(-c4cnn(S(=O)(=O)C5CC5)c4)n3)cc2N2CCC(C)(CO)CC2)c1 [Example 255, (1-(2-((2-(1-(Cyclopropylsulfonyl)-1H-pyrazol-4-yl)pyrimidin-4-yl)amino)-5-((3-((dimethylamino)methyl)phenyl)ethynyl)pyridin-4-yl)-4-methylpiperidin-4-yl)methanol]	1.3	0.2	0.1	0.3	0.3	0.4	1.4	1.2	1	376
CC1(CO)CCN(c2cc(Nc3ccnc(-c4cnn(S(=O)(=O)C5CC5)c4)n3)ncc2C#Cc2ccccc2)CC1 [Example 256, (1-(2-((2-(1-(Cyclopropylsulfonyl)-1H-pyrazol-4-yl)pyrimidin-4-yl)amino)-5-(phenylethynyl)pyridin-4-yl)-4-methylpiperidin-4-yl)methanol]		20.6		17.7		7.6		67.3		> 10000
CC1(CO)CCN(c2cc(Nc3ccnc(-c4cnn(S(=O)(=O)C5CC5)c4)n3)ncc2C#Cc2ccccc2F)CC1 [Example 257, (1-(2-((2-(1-(Cyclopropylsulfonyl)-1H-pyrazol-4-yl)pyrimidin-4-yl)amino)-5-((2-fluorophenyl)ethynyl)pyridin-4-yl)-4-methylpiperidin-4-yl)methanol]		19.4		23.1		10.7		143		> 10000
CC1(CO)CCN(c2cc(Nc3ccnc(-c4cnn(S(=O)(=O)C5CC5)c4)n3)ncc2C#Cc2ccncc2)CC1 [Example 258, (1-(2-((2-(1-(Cyclopropylsulfonyl)-1H-pyrazol-4-yl)pyrimidin-4-yl)amino)-5-(pyridin-4-ylethynyl)pyridin-4-yl)-4-methylpiperidin-4-yl)methanol]	0.3	0.5	0.1	0.5	0.7	0.5	1.8	7.7	5	5310
CC1(CO)CCN(c2cc(Nc3ccnc(-c4cnn(S(=O)(=O)C5CC5)c4)n3)ncc2C#Cc2ccccn2)CC1 [Example 259, (1-(2-((2-(1-(Cyclopropylsulfonyl)-1H-pyrazol-4-yl)pyrimidin-4-yl)amino)-5-(pyridin-2-ylethynyl)pyridin-4-yl)-4-methylpiperidin-4-yl)methanol]	0.6	0.5	0.3	0.5	0.5	1.2	1.2	36	5.3	3400
CC1(CO)CCN(c2cc(Nc3ccnc(-c4cnn(S(=O)(=O)C5CC5)c4)n3)ncc2C#Cc2cccnc2)CC1 [Example 260, (1-(2-((2-(1-(Cyclopropylsulfonyl)-1H-pyrazol-4-yl)pyrimidin-4-yl)amino)-5-(pyridin-3-ylethynyl)pyridin-4-yl)-4-methylpiperidin-4-yl)methanol]	0.5	0.4	0.2	0.3	0.3	0.5	1	10.8	2.1	832
CC1(CO)CCN(c2cc(Nc3ccnc(-c4cnn(S(=O)(=O)C5CC5)c4)n3)ncc2C#Cc2cccc(C(=O)N3CCOCC3)c2)CC1 [Example 261, (3-((6-((2-(1-(Cyclopropylsulfonyl)-1H-pyrazol-4-yl)pyrimidin-4-yl)amino)-4-(4-(hydroxymethyl)-4-methylpiperidin-1-yl)pyridin-3-yl)ethynyl)phenyl)(morpholino)methanone]	1.2	0.6	0.5	0.6	1.3	1	1.3	4.2	6.2	2500
CN(C)C(=O)c1ccc(C#Cc2cnc(Nc3ccnc(-c4cnn(S(=O)(=O)C5CC5)c4)n3)cc2N2CCC(C)(CO)CC2)cc1 [Example 262, 4-((6-((2-(1-(Cyclopropylsulfonyl)-1H-pyrazol-4-yl)pyrimidin-4-yl)amino)-4-(4-(hydroxymethyl)-4-methylpiperidin-1-yl)pyridin-3-yl)ethynyl)-N,N-dimethylbenzamide]	1.2	1.4	0.4	1.3	0.8	1.1	0.9	5.7	4.4	> 10000
CC1(CO)CCN(c2cc(Nc3ccnc(-c4cnn(S(=O)(=O)C5CC5)c4)n3)ncc2C#Cc2ccc(C(=O)N3CCOCC3)cc2)CC1 [Example 263, (4-((6-((2-(1-(Cyclopropylsulfonyl)-1H-pyrazol-4-yl)pyrimidin-4-yl)amino)-4-(4-(hydroxymethyl)-4-methylpiperidin-1-yl)pyridin-3-yl)ethynyl)phenyl)(morpholino)methanone]	1.1	1.5	0.4	1.2	0.8	1.3	0.7	3.2	3	> 10000
CN(C)C(=O)c1cccc(C#Cc2cnc(Nc3ccnc(-c4cnn(S(=O)(=O)C5CC5)c4)n3)cc2N2CCC(C)(CO)CC2)n1 [Example 264, 6-((6-((2-(1-(Cyclopropylsulfonyl)-1H-pyrazol-4-yl)pyrimidin-4-yl)amino)-4-(4-(hydroxymethyl)-4-methylpiperidin-1-yl)pyridin-3-yl)ethynyl)-N,N-dimethylpicolinamide]	0.7	0.9	0.3	0.8	1	1.8	1.3	14.1	9.9	> 10000
